“Also recorded” adds a separate entry of the source.
What was measured:
[1] = test system: bovine aortic endothelial cells (BAEC); assay: Evaluation of NO production in fixed cells (DAF-2 DA fluorescence); format: cell-based; settings: for NO production in response to hesperetin after inhibitor pre-treatment: 10 min; for NO production in response to hesperetin after inhibitor pre-treatment / NO production in response to insulin after inhibitor pre-treatment: inhibitor added 30 min before DAF-2 DA loading; for NO production in response to insulin after inhibitor pre-treatment: insulin 100 nM, 5 min
Description: Bovine aortic endothelial cells (BAEC) in primary culture (Cell Applications, San Diego, Calif.) were grown in EBM (Endothelial Basal Medium) containing EGM-MV supplements (Endothelial Growth Medium-Micro Vascular; Cambrex, Walkersville, Md.) and used between passages 3 and 5 as previously described (Formoso et al., Mol Endocrinol, 20:1153-63, 2006). […] Biol. Chem. 282:13736-45, 2007; Formoso et al., Mol. Endocrinol. 20:1153-63, 2006). Briefly, BAECs were grown to 95% confluence in Lab-Tek™ chamber slides (Rochester, N.Y.) and then serum-starved overnight in phenol red-free EBM supplemented with L-arginine (100 μM). BAECs were loaded with DAF-2 DA (3 μM) for 20 minutes at 37° C. […] After loading with DAF-2 DA for 20 minutes, cells were washed with EBM at 37° C. and kept in the dark. Next, BAECs were treated with insulin (100 nM, 5 minutes), lysophosphatidic acid (LPA; 5 μM, 5 minutes), or hesperetin (10 μM, 10 minutes; Sigma). After treatment, cells were fixed in 4% paraformaldehyde (vol/vol) for 5 minutes at 4° C. Fixed cells were visualized using an Olympus IX81 inverted microscope with attached CCD camera (Retiga Exi, Burnaby, BC, Canada) using appropriate filters with a peak excitation wavelength of 480 nm and a peak emission wavelength of 510 nm. Images were captured using IPLab™ Software (Scanalytics, Inc., Fairfax, Va.).

[2] = test system: bovine aortic endothelial cells (BAEC); assay: Measurement of H2O2/ROS production (CM-H2DCF-DA fluorescence); format: cell-based; settings: for production of ROS in BAEC: 10 μM, 10 minutes
Description: Briefly, BAECs were plated on chamber slides and incubated overnight in media free of phenol red, serum, and growth factors. Cells were then washed with Dulbecco's phosphate buffered saline containing calcium and magnesium (DPBS) before each experiment. Cells were loaded with CM-H2DCF-DA (5 μM, 20 minutes, 37° C.) and then washed to remove excess CM-H2DCF-DA. Cells were then treated with H2O2, hesperetin, or naringenin as indicated in the legends to figures followed by washing three times with DPBS. Some groups of cells were pre-treated with N-acetylcysteine (NAC) (10 mM, 2 hours). Cells were then visualized and images were captured as described for measurement of NO production.

[3] = test system: bovine aortic endothelial cells (BAEC); assay: Immunoblotting of phospho-AMPK, phospho-Akt, phospho-eNOS and phospho-Src in BAEC; format: cell-based
Description: Bovine aortic endothelial cells (BAEC) in primary culture (Cell Applications, San Diego, Calif.) were grown in EBM (Endothelial Basal Medium) containing EGM-MV supplements (Endothelial Growth Medium-Micro Vascular; Cambrex, Walkersville, Md.) and used between passages 3 and 5 as previously described (Formoso et al., Mol Endocrinol, 20:1153-63, 2006). BAECs were grown in 60 mm dishes, serum-starved overnight, and then treated with hesperetin (10 μM) for varying durations or for 10 minutes at different concentrations. In some experiments, Wortmannin (100 nM), or Compound C (5 μM) was added to cells 1 hour before treating with hesperetin. Cell lysates were prepared using 120 μl of lysis buffer (100 mM NaCl, 20 mM Hepes, pH 7.9, 1% Triton X-100, 1 mM Na3VO4, 4 mM sodium pyrophosphate, 10 mM EDTA, 1 mM phenylmethylsulfonyl fluoride, 10 mM NaF, and complete protease inhibitor cocktail (Roche Applied Sciences, Indianapolis, Ind.)). After centrifugation of samples at 17,000×g for 5 minutes at 4° C., supernatants were boiled with Laemmli sample buffer for 5 minutes and proteins (50 μg total protein) were resolved by 10% SDS-PAGE, transferred to nitrocellulose membranes, and immunoblotted using antibodies against eNOS (Transduction Laboratories), phospho-eNOS ([…]), Akt, phospho-Akt ([…]), AMPK, phospho-AMPK ([…]), Src ([…]) (Cell Signaling Technology), VCAM-1 (Santa Cruz, Calif.) or β-actin (Sigma) according to standard methods. Immunoblots were quantified by scanning densitometry (GE Healthcare).

[4] = test system: VCAM-1 expression in BAEC; assay: TNF-α-stimulated VCAM-1 expression by immunoblotting; format: cell-based, bovine; settings: 5 hours
Description: FIG. 5A is a digital image showing vascular cell adhesion molecule-1 (VCAM-1) expression by immunoblotting. BAECs were serum-starved overnight and then treated without or with TNF-α (10 ng/ml, 5 hours). In some groups, cells were pre-treated with hesperetin (10 μM, 1 hour) prior to treatment with TNF-α. Cell lysates were immunoblotted using antibodies against VCAM-1 or β-actin. Representative immunoblots are shown for experiments that were repeated independently four times. BAECs were grown in 60 mm dishes, serum-starved overnight, and then treated with hesperetin (10 μM) for varying durations or for 10 minutes at different concentrations. In some experiments, Wortmannin (100 nM), or Compound C (5 μM) was added to cells 1 hour before treating with hesperetin. Cell lysates were prepared using 120 μl of lysis buffer (100 mM NaCl, 20 mM Hepes, pH 7.9, 1% Triton X-100, 1 mM Na3VO4, 4 mM sodium pyrophosphate, 10 mM EDTA, 1 mM phenylmethylsulfonyl fluoride, 10 mM NaF, and complete protease inhibitor cocktail (Roche Applied Sciences, Indianapolis, Ind.)). […] Immunoblots were quantified by scanning densitometry (GE Healthcare).

[5] = test system: U937 monocytes adhering to BAECs; assay: Monocyte adhesion assay; format: cell-based, bovine; settings: 5 hours
Description: BAECs were cultured in 6-well plates and then treated with TNF-α (10 ng/ml, 5 hours) or hesperetin (10 μM, 5 hours). In some experiments, hesperetin was added 1 hour before treating cells with TNF-α. U937 monocytes were grown in DMEM medium containing 10% FBS in a culture flask. U937 monocytes were labeled for 15 min with 5 μM calcein-AM (Molecular Probes, Inc.). Labeled U937 cells (6×10^5 cells) were then incubated for 30 minutes at 37° C. with confluent BAECs pre-treated with hesperetin and/or TNF-α. Co-cultured cells were washed three times with PBS and then images of monocytes adhering to BAECs were obtained with an Olympus IX81 inverted microscope with attached CCD camera (Retiga Exi, Burnaby, BC, Canada) using appropriate filters. Images were captured using IPLab™ Software (Scanalytics, Inc., Fairfax, Va.).

[6] = hesperetin 10 μM, 1 hour before TNF-α 10 ng/ml
[7] = BAEC serum-starved overnight, hesperetin 10 min at varying concentrations or 10 μM for varying durations

c1cc(-c2cnn3cc(-c4ccc(OCCN5CCCCC5)cc4)cnc23)ccn1 [Compound C]
NO production in response to hesperetin after inhibitor pre-treatment ([1]; hesperetin 10 μM): substantially inhibited

COC(=O)[C@@H](N)CCCNC(=N)N[N+](=O)[O-] [L-NAME, L-N^G-Nitroarginine methyl ester]
NO production in response to hesperetin after inhibitor pre-treatment ([1]; hesperetin 10 μM): blocked
NO production in response to insulin after inhibitor pre-treatment [1]: blocked

CC(=O)N[C@@H](CS)C(=O)O [N-acetylcysteine, reference compound]
production of ROS after NAC pre-treatment ([2]; NAC 10 mM, 2 hours before loading): scavenged
hesperetin and naringenin-stimulated phosphorylation of Src (Tyr418), Akt (Ser473), and eNOS (Ser1179) after NAC pre-treatment ([3]; NAC 10 mM, 2 hours, flavanone 10 μM, 10 min): inhibited

CC(C)(C)n1nc(-c2ccc(Cl)cc2)c2c(N)ncnc21 [PP2]
NO production in response to hesperetin after inhibitor pre-treatment ([1]; hesperetin 10 μM): inhibited
NO production in response to insulin after inhibitor pre-treatment [1]: failed to inhibit
hesperetin-stimulated phosphorylation of Src, Akt, and eNOS after PP2 pre-treatment ([3]; PP2 1 μM, 1 hour, hesperetin 10 μM, 10 min): inhibited

COc1ccc([C@@H]2CC(=O)c3c(O)cc(O)cc3O2)cc1O [hesperetin]
TNF-α-stimulated expression of VCAM-1 after hesperetin pre-treatment [4, 6]: substantially reduced
TNF-α-stimulated adhesion of monocytes to endothelial cells after hesperetin pre-treatment [5, 6]: substantially reduced
production of ROS in BAEC [2]: stimulated
hesperetin-stimulated NO production in BAEC ([1]; DAF-2 DA, 10 min at varying concentrations or 10 μM for varying durations): concentration- and time-dependent increase
time of peak production of NO ([1]; hesperetin 10 μM, BAEC): 5 to 10 min
cellular levels of phosphorylated AMPK (Thr172) [3, 7]: Significant concentration-dependent effects; also recorded: acutely increased; also recorded: Significant time-dependent effects
cellular levels of phosphorylated Akt (Ser473) [3, 7]: Significant concentration-dependent effects; also recorded: acutely increased; also recorded: Significant time-dependent effects
phospho-eNOS (Ser1179) [3, 7]: Significant concentration-dependent effects; also recorded: increased; also recorded: Significant time-dependent effects

O=C1C[C@@H](c2ccc(O)cc2)Oc2cc(O)cc(O)c21 [naringenin]
production of ROS in BAEC [2]: stimulated

TNF-α
expression of VCAM-1 vs vehicle-treated control cells ([4]; TNF-α 10 ng/ml): increased
adhesion of labeled monocytes vs vehicle-treated control cells ([5]; TNF-α 10 ng/ml): corresponding increase
